By ED50 is commonly meant the dose that gives a 50% effect, or the effect in half of the subjects.

Consider 6 compounds from US4649150A, “Antiulcerogenic amidine derivatives of 2-substituted 4-phenylimidazole” (Istituto de Angeli, S.p.A., priority 1983, dated 1987).

Assay [1] deals with T1, histamine H2 -receptors (Cavia porcellus, UniProt P47747).
T1 construct: isolated guinea pig atria suspended in an organ bath; from tissue; host or cells: isolated guinea pig atria
In words: In vitro inhibitory activity in histamine-induced tachycardia (guinea pig atria); inhibition of the histamine-evoked positive chronotropic effect. The conditions noted are these: isolated guinea pig atria, Krebs-Henseleit pH 7.4, 32° C., histamine 10^-6 g.ml^-1, 30 minutes; read-out: EC50 (average effective concentration of the H2-antagonists, inhibition of histamine-induced tachycardia). As for the experimental part:
The myocardial preparation, loaded with 1 g isometric tension, was allowed to stabilize for 60 minutes, and myocardial contractions were recorded through an isometric lever connected to a strain-gauge coupler, and the instantaneous rate was monitored with a cardiotachometer and a heat-writing pen recorder. After two control responses to histamine (10^-6 g.ml^-1) the test compounds were added to the bath at the desired final concentration and left for 30 minutes before the atria were again challenged with histamine. The chronotropic response obtained in the presence of the antagonist was then compared to the control response to histamine, and the percent reduction of the histamine H2 -evoked response was calculated. […] 3, Smooth muscle, Ed. Daniel E. E. Paton, M., Plenum Press. New York (1975); Ash and Schild, Br. J. Pharmacol. Chemother. 27, 427-439, 1966.

The test system of assay [2] is histamine-induced gastric secretion of acid. Briefly: In vivo antisecretory activity in histamine-induced gastric secretion (stomach perfused rat). The note with it: iv, read-out: ED50 (histamine-induced gastric secretion). The source says: The ability of the test compounds to inhibit histamine-induced gastric secretion of acid was investigated after intravenous or intraduodenal administration in stomach perfused rats, according to Gosh and Schild [Br. J. Pharmacol. Chemother. 13, 54 (1958)]. The preparation of the animals in general anesthesia (urethane 1 g.kg^-1 i.p.) and constant temperature was achieved by inserting and tying in place polyethyl tubes (PE 50) in the esophagus and in the pyloric-antral region. After the stomach was washed to remove residuals of food, continuous perfusion of the stomach was started with saline, 0.5 ml.min^-1 (37° C.), primed by a Jobling peristaltic pump. After 30 minutes of perfusion adaptation, samples of the stomach perfusate were collected at 30 min. intervals and titrated for acid content, expressed as μEq of 1N NaOH. As control acid output became constant, intravenous perfusion of histamine (1 mg.kg^-1hr^-1) was started and maintained throughout the experimental period. After the acid secretion had reached the steadily higher level, increasing doses of the test compound were injected intravenously in order to obtain dose-response functions. The ED50 was then calculated by standard procedure.

The mark [3] stands for this setting: stomach perfused rat, urethane anesthesia, histamine 1 mg.kg^-1hr^-1 i.v., values expressed taking the compound as a base.

Like-named read-outs stand apart in the source and are kept apart here.

T1 sequence (P47747 whole entry): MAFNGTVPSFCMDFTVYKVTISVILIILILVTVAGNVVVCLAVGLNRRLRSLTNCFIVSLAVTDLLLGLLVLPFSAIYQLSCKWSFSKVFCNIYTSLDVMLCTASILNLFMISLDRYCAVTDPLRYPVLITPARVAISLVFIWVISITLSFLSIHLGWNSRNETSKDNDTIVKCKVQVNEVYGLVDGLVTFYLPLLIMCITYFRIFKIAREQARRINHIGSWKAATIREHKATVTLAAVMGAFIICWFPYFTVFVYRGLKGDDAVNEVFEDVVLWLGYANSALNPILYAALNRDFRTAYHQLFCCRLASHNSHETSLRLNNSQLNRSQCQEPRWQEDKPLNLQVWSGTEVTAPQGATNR

On to `C=CCNC=Nc1ccc(-c2c[nH]c(C)n2)cc1` [16 (c), N-Allyl-N'-[4-(2-methyl-imidazol-4-yl)phenyl]-formamidine], for which the EC50 in assay [1] stood at 120 nM. In addition, the 50% effective dose (ED50) in assay [2] (setting [3]) amounted to 0.025 mg/kg.

For the compound `CN/C(=N/CCSCc1nc[nH]c1C)NC#N` [Cimetidine, reference compound], the ED50 in assay [2] (Rattus norvegicus) came to 0.56 mg/kg.

In the case of `Cc1nc(-c2ccc(N=CNC(C)(C)C)cc2)c[nH]1` [Example 17, N-tert.Butyl-N'-[4-(2-methyl-imidazol-4-yl)phenyl]-formamidine], in assay [1], the EC50 came out at 400 nM. In addition, the ED50 in assay [2] (setting [3]) came to 0.08 mg/kg.

As for `Cc1nc(-c2ccc(N=CNC(C)C)cc2)c[nH]1` [16 (b), N-Isopropyl-N'-[4-(2-methyl-imidazol-4-yl)phenyl]-formamidine], the EC50 in assay [1] was 180 nM. Besides, the ED50 in assay [2] (setting [3]) was found to be 0.067 mg/kg.

For the compound `CC(C)NC=Nc1ccc(-c2c[nH]c(O)n2)cc1` [16 (aa), N-Isopropyl-N'-[4-(2-hydroxy-imidazol-4-yl)phenyl]-formamidine], the EC50 in assay [1] turned out to be 194 nM. Besides, the 50% effective dose (ED50) in assay [2] (setting [3]) was found to be 0.065 mg/kg.

With `CCNC=Nc1ccc(-c2c[nH]c(C)n2)cc1` [16 (a), N-Ethyl-N'-[4-(2-methyl-imidazol-4-yl)phenyl]-formamidine], the EC50 in assay [1] is 150 nM. Further, the ED50 in assay [2] (setting [3]) was determined as 0.032 mg/kg.
